This is an account of results in US11351221B2, “SMAC mimetic” (Medivir AB, priority 2009, dated 2022).

One series concerns the target T1, cIAP-1 (Homo sapiens, UniProt Q13490).
T1 construct: expressed in transfected cells; host or cells: A375 (A375Gc1)
The series is described as follows: cIAP degradation assay (GFP-cIAP-1). The following applies: for DC50: A375Gc1 cells, 2 h treatment, 50% of GFP signal inhibited (FACS), read-out: GFP-cIAP-1 IC50; for IC50 Ratio cIAP-2/cIAP-1: ratio of GFP-cIAP-2 to GFP-cIAP-1 degradation IC50. In kind it is cell-based. The protocol: (§1) Briefly, A375 cell lines expressing GFP-tagged cIAP-1 and cIAP-2 were generated by transfecting HA2xEGFP-pcDNA3 vector containing either cIAP-1 (A375Gc1) or cIAP-2 (A375Gc2) coding region. 2×10^4 of A375Gc1 or A375Gc2 cells were grown in 96-well plate and treated with various concentrations of test compounds for 2 h. After incubation, cells were collected by trypsinization and suspended in 150 μl of DMEM-10% FBS. A total of 10^4 cells were analyzed using a FACScan (Becton Dickinson). GFP fluorescence was monitored by using an excitation filter at 488 nm and emission was measured with a 530 nm filter.

The target of another series is T2, cIAP-2 (Homo sapiens, UniProt Q13489).
T2 construct: expressed in transfected cells; host or cells: A375 (A375Gc2)
T2 sequence (Q13489 whole entry, species assumed): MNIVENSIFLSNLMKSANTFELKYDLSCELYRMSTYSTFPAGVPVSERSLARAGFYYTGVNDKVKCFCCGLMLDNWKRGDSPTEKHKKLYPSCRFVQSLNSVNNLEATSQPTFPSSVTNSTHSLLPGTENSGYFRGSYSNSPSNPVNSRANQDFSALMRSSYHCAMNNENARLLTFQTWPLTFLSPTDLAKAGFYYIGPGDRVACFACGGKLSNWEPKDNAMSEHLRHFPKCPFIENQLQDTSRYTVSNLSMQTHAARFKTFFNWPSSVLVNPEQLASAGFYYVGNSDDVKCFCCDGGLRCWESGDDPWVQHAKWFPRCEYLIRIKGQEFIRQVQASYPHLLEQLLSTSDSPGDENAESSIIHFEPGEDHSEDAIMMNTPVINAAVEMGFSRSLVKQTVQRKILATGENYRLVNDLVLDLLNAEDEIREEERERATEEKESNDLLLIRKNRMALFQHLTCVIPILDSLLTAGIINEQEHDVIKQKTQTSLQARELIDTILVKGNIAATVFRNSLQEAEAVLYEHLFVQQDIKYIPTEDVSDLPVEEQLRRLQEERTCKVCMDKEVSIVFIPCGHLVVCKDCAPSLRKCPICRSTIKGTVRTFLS
The series is described as follows: cIAP degradation assay (GFP-cIAP-2). Format: cell-based. The following applies: A375Gc2 cells, 2 h treatment, 50% of GFP signal inhibited (FACS); read-out: GFP-cIAP-2 IC50. The protocol:
as §1, with “The concentration inducing degradation of cIAP-1 and cIAP-2 by 50% (IC50) for various compounds was determined by monitoring the disappearance of Green Fluorescent Protein (GFP)-signal in A375 cells. Briefly,” for “Briefly,”, “filter. IC50 is defined as the concentration of drug at which 50% of GFP signal was inhibited.” for “filter.”

The next series addresses T3, XIAP (Homo sapiens, UniProt P98170).
T3 construct: endogenous in cells; host or cells: MDA-MB-231 (ATCC), soluble hypotonic lysate
The series is described as follows: Caspase-3 derepression assay. The following applies: MDA-MB-231 hypotonic lysate activated with cytochrome c and dATP; zDEVD-R110(2) substrate. In kind it is biochemical. The protocol:
Cell pellet was washed one time by resuspending in 5 mL hypotonic lysis buffer (20 mM HEPES, pH7.5, 10 mM KCl, 1.5 mM MgCl2, 1.0 mM EDTA, 1.0 mM DTT) and recollected by centrifugation. Pellet was next resuspended in 1 volume of hypotonic lysis buffer supplemented with a complete protease inhibitor tablet (Roche) and allowed to swell on ice for 30 minutes. Cells were disrupted by approximately 50 passages through a 27 gauge needle. Lysis was monitored by light microscopy. Lysate was centrifuged at 12000×g for 10 minutes at 4° C. to remove membrane fraction, unlysed cells and debris. The soluble fraction was collected for protein concentration determination and subsequent assay analysis.
The hypotonic lysate (25 μg protein), 50 μg/mL cytochrome c and 10 mM dATP were combined in a microcentrifuge tube to a final volume of 9 μl in hypotonic lysis buffer followed by addition of test compound and incubated for 30 minutes at room temp. Following incubation 50 μl of hypotonic lysis buffer containing 5 μM of pro-fluorescent rhodamine-110(2) based caspase-3 substrate zDEVD-R110(2) was added and fluorescence intensity was monitored over time. Activation of the lysate by addition of cytochrome c and dATP results in apoptosome formation and subsequent activation of caspases-9 and -3.

For series [1], the system named is SKOV-3 ovarian tumor cell. As to the kind of experiment: SKOV-3 cytotoxicity (MTT assay). In kind it is cell-based. The following applies: Homo sapiens, SK-OV-3 cells, 72 hrs, concentration giving 50% cell survival. On the procedure:
SKOV-3 ovarian tumor cell cytotoxicity data were generated substantially as follows. The MTT (3-(4,5-Dimethylthiazol-2-yl)-2,5-diphenyltetrazolium bromide) assay is an example of an assay that has been used for measuring cell growth as previously described (Hansen, M. B., Nielsen, S. E., and Berg, K. (1989) J. Immunol Methods 119, 203-210) and incorporated herein by reference in its entirety. Briefly, SK-OV-3 cells were seeded in 96-well plates in McCoy's medium containing 10% fetal bovine serum albumin (5,000 per well) and incubated overnight at 37° C. The next day, test compounds were added at various concentrations (0.003-10 μM) and the plates were incubated at 37° C. for an additional 72 hrs. This incubation time was optimal for measuring inhibitory effects of different analogs. Fifty microliters of 5 mg/mL MTT reagent to each well was added and the plates were incubated at 37° C. for 3 hours. At the end of the incubation period, 50 microliters of DMSO was added to each well to dissolve cells and the optical density (OD) of the wells was measured using a microplate reader (Victor^2 1420, Wallac, Finland) at 535 nm. Cell survival (CS) was calculated by the following equation: CS=(OD treated well/mean OD control wells)×100%
The CC50, defined as the drug concentration that results in 50% CS, was derived by calculating the point where the dose-response curve crosses the 50% CS point using GraphPad Prism.
A general note: Formazan colour is commonly taken as a measure of viable cells.

The format of series [2] is in vivo. The source says:
Body weight loss (BWL), mortality and additional toxicity data were generated substantially as follows. […] Body weights were taken on day 4 and are shown as percent change from day 1.

Series [3] relates to MDA-MB-231 human breast tumor cells. The series is described as follows: MDA-MB-231 xenograft tumor growth delay. In kind it is in vivo, female nude mice. The following applies: for Long-term survivors / Partial tumor regression / T−C value (tumor growth delay): q3dx5. The protocol:
MDA-MB-231 xenograft data were generated substantially as follows. MDA-MB-231 human breast tumor cells were injected into the mammary fat pad of female nude mice and dosing initiated twelve days later at an average tumor volume of approximately 148 mm^3. No tumor burden was associated with this model based on lack of weight loss or animal morbidity in control groups. Mice were injected subcutaneously into the mammary fat pad with 1×10^7 cells suspended in 200 μl of a 1:1 HBSS: Matrigel solution; injected cells were within nine passages of the original lot. Pre-study tumor volumes were recorded beginning approximately one week prior to the estimated start date. When tumors reached approximately 150 mm^3 animals are matched by tumor volume into treatment and control groups and dosing initiated (Day 0); mice are tagged and followed individually throughout the experiment. Animals were dosed by weight (0.01 mL per gram; 10 ml/Kg).
Beginning on Day 0, animals were observed daily and weighed twice weekly using a digital scale (Ohaus SP601); data including individual and mean gram weights (Mean We±SD), mean percent weight change versus Day 0 (% vD0) and mean percent weight change versus prior measurement (% vD−x) were recorded for each group and plotted at study completion.
Beginning on Day 0, tumor dimensions were measured twice weekly by digital caliper (Fowler Ultra-Cal IV) and data including individual and mean estimated tumor volumes (Mean TV±SEM) recorded for each group; tumor volume was calculated using the formula: TV=width^2×length×0.52. Individual mice reaching the designated study endpoint (an estimated tumor volume of approximately 1 cm^3) were assigned a time to endpoint (TTE) value corresponding to that day; the tumor growth delay (TGD) study was concluded once all mice reach the study endpoint or sixty days following study initiation. At study completion, TGD and % TGD are calculated using the median TTE (MTTE) value for each treatment (T) group versus control (C) by the formulas: TGD(days)=T−C and % TGD=T−C/C×100, wherein T−C is the difference between MTTE-Treatment Group and MTTE-Control. Tumored animals not reaching the designated volume endpoint by study completion are considered long-term survivors (LTS) and assigned a TTE value corresponding to the final study day; tumor-free animals are not included in TGD calculations. A Log-rank test is used to determine statistically significant differences in overall survival experience between each treated group compared to control. Individual mice reporting a tumor volume ≤50% of the Day 0 measurement for two consecutive measurements over a seven day period were considered partial responders (PR). If the PR persisted until study completion, percent tumor regression (% TR) was determined using the formula: % TR=1−Tf/Ti×100; a mean value was calculated if multiple PR mice occurred in one group. Individual mice lacking palpable tumors (<4×4 mm^2 for two consecutive measurements over a seven day period) were classified as complete responders (CR); a CR that persisted until study completion was considered a tumor-free survivor (TFS); TFS animals are excluded from TGD calculations and statistical analysis. Statistical differences in MTTE values between control and treatment groups are compared using a Log Rank test.

The structures appear in SMILES notation.

T1 sequence (Q13490 whole entry, species assumed): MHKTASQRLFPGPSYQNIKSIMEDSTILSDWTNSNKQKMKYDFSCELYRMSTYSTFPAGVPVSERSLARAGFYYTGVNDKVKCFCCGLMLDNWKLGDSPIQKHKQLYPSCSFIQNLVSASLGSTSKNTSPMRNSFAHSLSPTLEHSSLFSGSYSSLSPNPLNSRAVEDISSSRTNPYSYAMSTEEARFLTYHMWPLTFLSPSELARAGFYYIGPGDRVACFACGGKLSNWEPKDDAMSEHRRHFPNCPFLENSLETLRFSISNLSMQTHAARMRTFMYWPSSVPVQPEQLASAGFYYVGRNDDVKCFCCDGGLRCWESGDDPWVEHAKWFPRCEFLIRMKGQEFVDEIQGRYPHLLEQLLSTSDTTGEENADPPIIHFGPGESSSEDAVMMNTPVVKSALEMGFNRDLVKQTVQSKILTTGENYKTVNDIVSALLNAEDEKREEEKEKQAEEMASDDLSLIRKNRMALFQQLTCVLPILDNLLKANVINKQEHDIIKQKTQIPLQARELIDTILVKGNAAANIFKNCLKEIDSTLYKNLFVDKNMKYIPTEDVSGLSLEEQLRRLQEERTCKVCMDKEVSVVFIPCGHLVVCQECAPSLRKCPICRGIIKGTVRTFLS
T3 sequence (P98170 whole entry): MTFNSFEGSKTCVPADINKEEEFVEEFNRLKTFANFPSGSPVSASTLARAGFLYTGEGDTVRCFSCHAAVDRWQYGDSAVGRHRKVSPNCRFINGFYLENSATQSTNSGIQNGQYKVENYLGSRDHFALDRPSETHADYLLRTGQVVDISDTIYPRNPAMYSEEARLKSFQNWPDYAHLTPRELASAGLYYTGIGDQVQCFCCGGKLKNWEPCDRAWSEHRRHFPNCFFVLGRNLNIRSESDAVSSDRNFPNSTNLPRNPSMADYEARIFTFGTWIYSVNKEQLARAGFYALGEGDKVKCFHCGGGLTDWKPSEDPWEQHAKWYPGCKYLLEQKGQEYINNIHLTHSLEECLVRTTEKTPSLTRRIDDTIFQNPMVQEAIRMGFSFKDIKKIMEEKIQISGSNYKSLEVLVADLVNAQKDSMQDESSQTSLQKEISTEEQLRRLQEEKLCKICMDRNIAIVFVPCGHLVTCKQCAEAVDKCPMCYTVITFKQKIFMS

`CN[C@@H](C)C(=O)N[C@H](C(=O)N1C[C@@H](O)C[C@H]1Cc1c(-c2[nH]c3cc(F)ccc3c2C[C@@H]2C[C@H](O)CN2C(=O)[C@@H](NC(=O)[C@H](C)NC)C(C)C)[nH]c2cc(F)ccc12)C(C)C` [Compound 2]: at cIAP-1, the DC50 stood at 4 nM and the “IC50 Ratio cIAP-2/cIAP-1” value is listed as 1.8. At cIAP-2, the DC50 came out at 7 nM. Moreover, it took 13.4 nM to reach half-maximal inhibition at XIAP (IC50). Besides, in series [1], the midpoint of cytotoxicity, the CC50, lay at 0.5 nM.

Consider `CN[C@@H](C)C(=O)N[C@H](C(=O)N1C[C@@H](O)C[C@H]1Cc1c(-c2[nH]c3cc(F)ccc3c2C[C@@H]2C[C@H](O)CN2C(=O)[C@@H](NC(=O)[C@H](C)NC)[C@@H](C)O)[nH]c2cc(F)ccc12)[C@@H](C)O` [Compound 3], for which the DC50 at cIAP-1 is 328 nM; on cIAP-2, 674 nM. Also, the “IC50 Ratio cIAP-2/cIAP-1” value at cIAP-1 came out at 2.1. At XIAP, this compound gave an IC50 of 0.2 nM. Also, in series [1], it took 13 nM to reach half-maximal cytotoxicity (CC50).

As for `CN[C@@H](C)C(=O)N[C@H](C(=O)N1C[C@@H](O)C[C@H]1Cc1c(-c2[nH]c3cc(F)ccc3c2C[C@@H]2C[C@H](O)CN2C(=O)[C@@H](NC(=O)[C@H](C)NC)[C@H](C)O)[nH]c2cc(F)ccc12)[C@H](C)O` [Compound 4], at cIAP-1, the DC50 was 464 nM and the “IC50 Ratio cIAP-2/cIAP-1” value came to 1.3. The DC50 on cIAP-2 is 604 nM. For the same compound, at XIAP, half-maximal inhibition (IC50) required 0.35 nM. Moreover, in series [1], the CC50 worked out at 2 nM. In addition, in series [2] (rat, 3 mg/Kg, QDx4 i.v. bolus), the Mortality result is “caused the animals to die”. Besides, in series [2] (rat, in vivo, 1 mg/kg/day), the “Bone marrow hypocellularity of the erythroid series (anatomic pathology)” value was “marked to severe”; the “Hypercellularity of the myeloid series (anatomic pathology)” value is listed as “mild to moderate”; the “Hypertrophy and hyperplasia of megakaryocytes (anatomic pathology)” value is “mild to moderate”; the “Type 2 pneumocyte hypertrophy/hyperplasia in the lungs (anatomic pathology)” value is recorded as “mild to moderate”. In addition, the Clinical signs entry in series [2] (rat, in vivo, iv, 1 mg/kg/day) is “lethargy, increased/irregular respiration and increased heart rate”.

Consider `CC[C@H](NC(=O)[C@H](C)NC)C(=O)N1C[C@@H](O)C[C@H]1Cc1c(-c2[nH]c3cc(F)ccc3c2C[C@@H]2C[C@H](O)CN2C(=O)[C@H](CC)NC(=O)[C@H](C)NC)[nH]c2cc(F)ccc12` [Compound 15, N-{1S-[2R-(6,6′-Difluoro-3′-{4S-hydroxy-1-[2S-(2S-methylamino-propionylamino)-butyryl]-pyrrolidin-2R-ylmethyl}-1H,1′H-[2,2′]biindolyl-3-ylmethyl)-4S-hydroxy-pyrrolidine-1-carbonyl]-propyl}-2S-methylamino-propionamide], for which, at cIAP-2, the DC50 was 174 nM. Moreover, the midpoint of cytotoxicity in series [1], the CC50, lay at 0.14 nM. Also, in series [2] (Sprague-Dawley, in vivo, iv, 4 days), the “Tolerability in the rat as compared to Compounds 4 and 5, dose per dose” value is recorded as “approximately 5 fold”. Also, the Long-term survivors is on record as 6/10 in series [3] (20 mg/Kg i.p.), 9/10 in series [3] (40 mg/Kg i.p.) and 8/10 in series [3] (60 mg/Kg i.p.). The values for the Partial tumor regression entry in series [3] (20 mg/Kg i.p.), in series [3] (40 mg/Kg i.p.) and in series [3] (60 mg/Kg i.p.) were “three”, “three” and “seven”, respectively. Besides, the “T−C value (tumor growth delay)” value in series [3] (20 mg/Kg i.p.), in series [3] (40 mg/Kg i.p.) and in series [3] (60 mg/Kg i.p.) was 22 days each time. In series [3] (MDA-MB-231 xenograft model, subsequent studies), the Minimal effective dose entry is “less than 1 mg/Kg”.

What is called IC50 is the concentration that inhibits the measured activity by half. The low end stands for higher potency, the high end for lower potency. As a reminder, the CC50 is the concentration at which the toxic effect on the cells reaches its halfway point.
